The record followed here is patent US5441983A, “Treatment of infection by enveloped virus with calix(N)arene compounds” (Genelabs Incorporated, priority 1992, dated 1995).

In brackets after ≈: the same amount, converted by molar mass. Like-named read-outs stand apart in the source and are kept apart here.

The subject of series [1] is HSV-2. Put plainly: Plaque reduction assay, HSV-2, Vero cells. Format: cell-based, HSV-2 (333). To be noted: Human alphaherpesvirus 2, Vero. As for the experimental part: (§1) used in Table 3 were further tested for activity against HSV infection in
(§2) a plaque reduction assay, as detailed in Example 6. Here Vero cells, after
(§3) overnight incubation, were exposed to serial dilutions of KY compound,
(§4) from 0.625-10 μg/ml, and HSV-1 or HSV-2 virus for two hours. After
(§5) washing to remove drug and extracellular virus, the cells were further
(§6) incubated for 2 days, then stained and counted for plaque formation.
(§7) Percent inhibition was determined by dividing plaques produced by total
(§8) number of plaques in infected, untreated controls. From the concentration
(§9) effect curve of plaque inhibition (expressed as percent of control), the
(§10) concentration of compound required to produce 50% plaque reduction,
(§11) IC50, was determined. The IC50 values for infection by HSV-1 and
(§12) HSV-2 infection is given in the right-hand columns in Table 3. With
In general terms: Plaques are areas of infected cells; plaque reduction assays count them against a control.

Series [2] has as its system HIV-RF-II. Put plainly: Inhibition of syncytia formation, HIV-RF-II.
Procedure: (§13) Briefly, cells chronically infected with HTLV-IIIB or RF-II HIV strains were incubated in the presence of serial dilutions of the selected KY compound, then further cocultured with indicator cells. The extent of syncytia formation was scored under phase microscopy.
(§14) Representative calix(n)arene compounds from Table 2 were tested for inhibition of cytopathic effects in cells infected with one of two HTLV-III strains, HTLV-IIIB and RF-II strains, as described in Example 12, and in the subsection above.
(§15) Human CD4^+ indicator cells (VB) and chronically infected H9 cells were maintained in RPMI-1640 medium supplemented with 5% fetal calf serum, 100 Units of penicillin per ml and 100 μg of streptomycin per ml at 37° C. in a humidified incubator containing 7% CO2.
(§16) For the fusion assay, serial dilutions between 1:2 and 1:2^8 of a selected KY compound, 1 mg/ml in PBS were made in a 96 well round bottom plate. The diluted KY compound was transferred to a 96 well flat-bottom plate. To each well was added 25 μg chronically infected H9 cells (at 2×10^6, cells/ml), or cells chronically infected with RF-II strain HIV, followed by incubation at 37° C. for 45 minutes. To each well was then added 25 μl VB cells (about 5×10^4 cells), and the cells and virus isolates were cocultured for 18 hours in a humid 5% CO2 atmosphere.
Series [3] has as its system panel of human cell lines. Put plainly: Cytotoxicity in proliferating human cell lines. Type of series: cell-based. Particulars: 72 h, read-out: IC50 drug concentration (50% cell death). As for the experimental part:
In addition, a large number of representative aryl macrocyclic compounds (including those shown in Tables 1 and 2) were examined for toxicity in cell culture, using a panel of human cell lines, as detailed in Example 4. Briefly, the selected KY- or Y- compound was added to cell cultures at a final concentration of 5, 10, 25, 50, or 100 μg/ml. Three days later the cells were washed to remove drug, and stained with a vital stain, to determine the percentage of dead cells in each culture. The IC50 drug concentration, i.e., value concentration of drug which produced 50% cell death, was 50 μg/ml for KY-143, KY-151, and KY-163, and 100 μg/ml or greater for all of the other KY compounds tested. For KY-1, which has a molecular weight of 1404 daltons, a drug concentration of 100 μg/ml is equivalent to about […].
A panel of human cell lines was used to check the toxicity of the drugs, including: KB (nasopharyngeal carcinoma), HeLaS3 (cervical epithelial carcinoma), PLC (hepatocarcinoma), HepG2 (human hepatocarcinoma) HepG2T14 (hepatocarcinoma transfected with HBV), WI38 (normal human lung fibroblast), BT549 (breast cancer), SW480 ([…]), and A549 (lung cancer).
Three days later, the medium was removed and the cells were stained with Commassie Blue in 40% methanol and 7% acetic acid. The results are discussed in Section II above.

Series [4] concerns HIV-HXB. Briefly: Inhibition of syncytia formation, HIV-HXB (HTLV-IIIB). Particulars: for EC100: Human immunodeficiency virus 1, 18 h, read-out: HIV-HXB ED100, complete inhibition of syncytia formation.
Procedure: as §13, §14, §15, §16
Series [5] has as its system HSV-1. Put plainly: Plaque reduction assay, HSV-1, Vero cells. Particulars: for IC50: Human alphaherpesvirus 1, Vero, plaque reduction, Vero cells. Type of series: cell-based, HSV-1 (Kos-1). As for the experimental part:
as §1, §2, §3, §4, §5, §6, §7, §8, §9, §10, §11, §12

For series [6], the system named is HSV-1 or HSV-2. Put plainly: Inhibition of HSV cytopathic effect (CPE) in Vero cells. Particulars: 10-20 μg/ml. For orientation: Cytopathic effects are the visible damage that an infection or toxin causes in cultured cells.
Procedure: In the method reported in Example 5, Vero cells were infected with HSV-1 or HSV-2 and allowed to grow in culture until cytopathic effects were clearly visible. In the absence of infection, the cells form an even monolayer of fibro-blastlike cells. With HSV infection, a cytopathic effect characterized by round cells in suspension is clearly evident after 24 hours, followed by clumping and lysis of infected cells after 24-72 hours.
In the drug inhibition study reported in Example 5, cells were exposed to HSV-1 or HSV-2 virus and, at the same time, to a selected aryl macrocyclic compound, at a final drug concentration of 10 μg/ml. Twenty-four hours later the cells were examined for cytopathic effect.
Vero cells were maintained in RPMI-1640 medium supplemented with 5% fetal calf serum, 100 Units of penicillin per ml and 100 μg of streptomycin per ml at 37° C. in a humidified incubator containing 7% CO2. The HSV strains HSV-1 (Kos-1) and HSV-2 (333) were used.
1×10^5 Vero cells were plated in each well of a 96 well microtitre plate in 0.2 ml RPMI-1640 medium containing 5% FCS and 0.1% methyl cellulose (15 cps). After overnight incubation, and cell doubling, the medium was aspirated and replaced with 100 .1 of the same medium containing 2% FCS, and 50.1 control or drug solution to a final drug concentration of 10 μg/ml and 50 μl virus, containing about 3 PFU/cell, i.e., 6 x 10^s PFU/well, of HSV-1 or HSV-2.
The cells were cultured for 24 hours at 37° C. at which time cytopathic effects are clearly visible. In the absence of viral infection, the cells form an even monolayer of fibroblast cells. With viral infection, the cells form a suspension of round cells, followed by cell clumping, whose appearance is easily distinguishable from normal fibroblast cells. If no detectable cytopathic effect was produced, the test was repeated with 10 μg/ml. A parallel set of cells without virus inoculation were done as a control for cytotoxicity to Vero cells.
Series [7] deals with HSV-1 and HSV-2. Briefly: Viral yield inhibition, HeLa cells, plaque count on Vero cells. Particulars: virus yield or CPE assays.
Procedure: The ability of selected naphthalene-subunit compounds to inhibit HSV-1 and HSV-2 viral yields at selected drug concentrations up to 10 μg/ml was assessed in the viral inhibition assay described in Example 7. Briefly, cultured Hela cells were exposed to serially diluted KY compound and virus, allowed to grow for 24 hours, then freeze/thawed 3 times to release virus particles. Vero cells were infected serial dilutions of the viral lysates were assayed for plaque counts as described in Example 6.
1×10^6 HeLa S3 were plated in 25 T flasks in 5 ml RPMI-1640+5% FCS+P/S. 24 hours later, the medium was aspirated and replaced with 6×10^6 PFU HSV-1 or HSV-2, and serial dilutions of selected KY compounds, at 10, 5, 2.5, 1.25, and 0.625 μg/ml drug. After growth at 37° C. for 24 hours in 2 ml of RPMI-1640 containing 2% FCS and P/S, the cells were frozen at -70° C. until the time for titration. The cells were freeze/thawed 3 times to release virus from the cells, and serially diluted 10 fold.
1×10^5 Vero cells were plated in each well of 24 well multi-dish in 1 ml RPMI-1640+5% FCS+P/S+0.1% methylcellulose (15 cps). On the second day, after removal of the medium, the 10 fold serially diluted virus in 100 μl was added in duplicate. […] The plaques formed were counted and the titer was calculated from the fold of dilutions.
The test system of series [8] is HSV-1. Briefly: HSV-1 viral yield inhibition by combined drug exposure. Type of series: cell-based. To be noted: HSV-1, FIG. 34A. The source says:
With either drug alone, a maximum decrease in viral yield was slightly less than three logs (orders of magnitude).
Two days later, the medium was removed.

Series [9] concerns HSV-1. Put plainly: Topical treatment of ocular HSV-1 infection, rabbits.
Procedure: New Zealand white rabbits were acclimated for a minimum of two days prior to inoculation to allow the animals to accommodate to conditions in the vivarium facility. After the accommodation period, animals received a slit lamp ocular examination to exclude any animals with preexisting anterior segment ocular defects. Animals were bilaterally inoculated topically with an 80 μl drop of Minimal Essential Medium (MEM; Gibco) containing 10^5 pfu/ml McKrae strain HSV-1; eyes were massaged for 30 seconds. Animals were replaced individually in cages.
On day 4 post inoculation (PI), animals were evaluated by slit lamp microscopy. Corneal epithelial, iris, and conjunctival disease were graded on an increasing scale of severity from 0+ to 4+. After evaluation, animals were divided into 4 groups of 5 animals with matched corneal, stromal and conjunctival involvement. Topical therapy was initiated immediately after animal grouping. Therapy groups included:
Group #1: 5 rabbits, Y-1 topical therapy (6.25 μg/50 μl) 5×/dayfor 4 days;
Group #2: 5 rabbits, Y-1 topical therapy (12.5 μg/50 μl) 5×/dayfor 4 days;
Group #3: 5 rabbits, Y-1 topical therapy (18.75 μg/50 μl) 5×/day for 4 days;
Group #4: 5 rabbits, placebo therapy (sterile water) 5×/day for 5 days.
All Y-1 doses were formulated to contain these concentrations in a volume of 50 μl (a standard eye drop).
Topical therapy with 0-19 μg Y-1 in 50 μl was initiated on day 4 post-inoculation (PI) and continued to day 7 PI. All animals received daily ocular slit lamp evaluations from day 3 through day 7 PI. The ocular HSV-1 induced disease severity was recorded daily.
Eyes of all animals were additionally sampled for the presence of infectious HSV-1 on days 0 (pre-inoculation), 3, 5, and 7 PI. Briefly, tear film was obtained by swabbing the lower and upper conjunctival sacs and retaining the swab in the nasal fornix for 10 seconds. The swabs were eluted individually in Hank's Buffered Saline (HBSS, Gibco Laboratories). Fifty microliter aliquots of the virus-HBSS eluate was adsorbed onto confluent HFF cell monolayers for 5 minutes. Monolayers were hydrated with Minimal Essential Medium (MEM; Gibco Laboratories), incubated at 37° C. and observed daily for two weeks to detect cytopathology consistent with HSV infection (HSV CPE).
On day 7 PI (sacrifice), the corneal epithelium was scraped from the eyes and HSV was recovered on HFF cell monolayers. Corneal epithelial co-cultures were evaluated daily by inverted light microscopy.
Series [10] has as its system HSV-2. Put plainly: Topical treatment of genital HSV-2 infection, guinea pigs, second study.
Procedure: In another study using the guinea pig genital model described above, animals were infected with HSV-2, then treated with KY-1 or Y-1 topically at concentrations of 2% or 5% drug. […] Animals were treated and scored daily for severity of infection for 19 days.
(§17) The MS strain of HSV-2 was utilized for the experimental animal infection. Female Hartley strain guinea pigs (Charles River Breeding Laboratories, Kingston, NY) weighing 250-300 g were inoculated intravaginally with 2.0×10^5 plaque-forming units of HSV-2 one hour after being swabbed for removal of vaginal secretions.
Formulations of KY-1 or Y-1 were prepared by dissolving the compound in a 1.5% methyl cellulose solution such that final concentration of compound was 2% or 5% (wt/wt). Control animals were given either no treatment (N=10 animals) or treatment with placebo (1.5% methylcellulose solution).
(§18) To determine the effect of therapy on the development and spread of external genital lesions, lesion severity was scored on a 0-5+ scale through the primary infection period (19-21 days). Lesion score-day areas and virus titer-day areas under the curve, and peak lesion scores and peak virus titers between untreated and placebo-treated or placebo-treated and drug-treated animals were compared using the Mann-Whitney U range sum test. A p-value of 0.05 or less was considered significant.
Animals were scored daily for 19 days following inoculation for presence of lesions and severity of lesions (on a 0-5+ point scale). Lesion scores were tabulated as area under the curve of daily lesion score vs. time (days) and peak lesion score observed. A known antiviral agent, acyclovir (ACV) was administered in a 5% formulation to 8 animals as a positive control in the study.
For series [11], the system named is HSV-1 KOS. Put plainly: Inhibition of viral yield, wild type HSV-1 KOS. Particulars: Human alphaherpesvirus 1, HeLa, read-out: ID90.
Procedure: (§19) These compounds tested were the nucleoside analogs acyclovir (ACV), ganciclovir (DHPG), phosphonoformate (PFA), and phosphomethoxyethyladenine (PMEA). Inhibition of viral yield was determined, as above, by infecting Hela cells in the presence of wild type or drug-resistant strains of HSV-1 or HSV-2, and serial dilutions of a selected anti-viral compound, and infecting Vero cells with serial dilutions of the Hela cell lysate, as above.
(§20) The KOS (HSV-1) and 333 (HSV-2) are wild type viruses; the KOS(PMEA)' and KOS(PFA)' are drug-resistant HSV-1 strains having a DNA polymerase mutation. The 333(DHPG) strain is a drug-resistantHSV-2 strain having a thymidine kinase mutation.
(§21) The following strains of HSV-1 and HSV-2 virus were used: KOS, a wild type HSV-1 virus; KOS (PMEA) and KOS (PFA), both drug-resistant HSV-1 viruses having a DNA polymerase mutation; 333, a wild type HSV-2 HSV-2 virus, and 333 (DHPG), a drug-resistant HSV-2 virus having a thymidine kinase mutation.
(§22) After growth at 37° C. for 24 hours in 2 ml of RPMI-1640 containing 2% FCS and penicillin and streptomycin (P/S), the cells were frozen at -70° C. until the time for titration. The cells were freeze/thawed 3 times to release virus from the cells, serially diluted 10 fold, and the serial dilutions were added to Vero cells in culture. After 2 hours incubation at 37° C. the virus was removed and 0.5 ml methycellulose (4K cps) in RPMI-1640 and 2% FCS+P/S was added. Two days later, the medium was removed. The cells were stained in 0.8% crystal violet in 50% ethanol. The plaques formed were counted and the titer was calculated from the fold of dilutions. From the drug dose response, the concentration of each drug required to effect a 90% inhibition of virus yield, the IC90 concentration was determined.
Series [12] relates to HSV-1 KOS (PFA)'. Briefly: Inhibition of viral yield, drug-resistant HSV-1 KOS(PFA)'. To be noted: Human alphaherpesvirus 1, HeLa, read-out: ID90.
Procedure: as §19, §20, §21, §22
Series [13] relates to HSV-2. Briefly: Topical treatment of genital HSV-2 infection, guinea pigs, first study. Particulars: 5%.
Procedure: Briefly, female guinea pigs were infected intravaginally with HSV-2, then treated topically three times daily beginning 6 hours or 48 hours after inoculation with HSV-2, as described in Example 13. […] Swabs of vaginal secretion were obtained and assayed for viral activity by a standard CPE assay. The severity of genital lesions was scored on a 0-5+ scale through the period of primary infection (21 days).
as §17
In the first study, groups of 10 guinea pigs were treated topically (0.1 ml intravaginally +0.1 ml on external genital skin) three times daily (approximately every eight hours) for seven days beginning 6 h or 48 h after inoculation with HSV-2.
To determine the effect of treatment on vaginal viral replication, swabs of vaginal secretions were obtained on days 1, 3, 5, 7 and 10 after HSV inoculation, placed in a tube containing 2.0 ml of media, vortexed and frozen at -70° C. until titrated for HSV-2. When all samples were collected, they were thawed, diluted serially and HSV-2 titers determined using rabbit kidney cells in a microtiter CPE assay.
as §18
The subject of series [14] is HSV-2 333. Put plainly: Inhibition of viral yield, wild type HSV-2 333. To be noted: Human alphaherpesvirus 2, HeLa, read-out: ID90.
Procedure: as §19, §20, §21, §22
Series [15] relates to HSV-2 333 (DHPG)'. Briefly: Inhibition of viral yield, drug-resistant HSV-2 333(DHPG)'. To be noted: Human alphaherpesvirus 2, HeLa, read-out: ID90.
Procedure: as §19, §20, §21, §22
The test system of series [16] is HSV-1 KOS(PMEA)'. Put plainly: Inhibition of viral yield, drug-resistant HSV-1 KOS(PMEA)'. To be noted: Human alphaherpesvirus 1, HeLa, read-out: ID90.
Procedure: as §19, §20, §21, §22
Series [17] relates to RSV. Put plainly: Inhibition of RSV cytopathic effect in HEp2 cells. Format: cell-based. Particulars: human respiratory syncytial virus, HEp-2; HEp2 cells, cytopathic effect; read-out: ED50 RSV.
Series [18] relates to Influenza A (Taiwan). Briefly: Inhibition of influenza A cytopathic effect (clumping) in MDCK cells. Format: cell-based, Influenza A virus (A/Taiwan strain). Particulars: Influenza A virus, 24 h, 50% reduction in percent clumped cells, read-out: ED50 Influenza A (Taiwan). As for the experimental part:
With virus infection, a cytopathic effect characterized by cell clumping is observed. For each compound tested, drug concentrations of 0.1, 1, 10, 25, and 100 μg/ml were added to cultured cells at the time of virus infection, as detailed in Examples 9 and 11. […] The inhibition of clumping was plotted as a function of drug concentration, to determine the dose effective to produce a 50% reduction in the percent clumped cells, measured with respect to control (no drug treatment).
Assays to assess the antiviral activity of KY- and Y-compounds in tissue culture were performed in 96-well flat-bottom tissue culture plates (Falcon 307), using conditions similar to those used in the cytotoxicity assays described above. In these assays, compound was tested in quadruplicate by serially diluting the compound in 2% FCS-MEM using serial two-fold dilutions (0.05 ml/well). A 0.05 ml volume of the appropriate virus containing approximately 100 median tissue culture infectious doses (TCID50) was then added to all wells except those set aside as antiviral and tissue control wells. Next, approximately 3×10^3 HEp2 cells (0.1 ml) were added to each well. Control wells containing antiviral and no virus (antiviral control), containing virus but no antiviral (virus control), or containing medium without virus or antiviral (tissue control), were included in each test. The challenge virus was then back titrated. All assay plates were incubated at 35° C. for 5 to 7 days in a 5% CO2 incubator.
The anti-influenza A activity of KY compounds was evaluated as described in Example 9, except that MDCK cells (kidney cell line) was used for infection in vitro by influenza virus (strain A/Taiwan).

The subject of series [19] is coagulation. Briefly: Anti-coagulant activity after oral and intravenous administration. Type of series: in vivo. Particulars: protamine sulfate intravenous. On the procedure:
One of the considerations in the administering the composition, particularly when the drug is administered parenterally or orally, is systemic side effects. Studies conducted in support of the present invention indicate that the calix(n)arene compound, particularly the sulfonic acid compound, may show anti-coagulant activity after oral and intravenous administration. […] The protamine administration is timed to correspond to highest blood levels of the calix(n)arene compounds. In a typical method, a dose of protamine equivalent to about 1 mg per 100 heparin anticoagulant units is administered intravenously simultaneously with IV administration of the calix(n)arene, or 1-2 hours after oral administration of the macrocyclic drug. It is generally recommended that protamine be infused slowly (i.e., not more than a total of 50 mg/10 minutes).

Turning to `O=S(=O)(O)c1c2c(O)c3c(O)c(c(S(=O)(=O)O)c(O)c3c1O)Cc1c(S(=O)(=O)O)c(O)c3c(O)c(S(=O)(=O)O)c(c(O)c3c1O)Cc1c(S(=O)(=O)O)c(O)c3c(O)c(S(=O)(=O)O)c(c(O)c3c1O)Cc1c(S(=O)(=O)O)c(O)c3c(O)c(S(=O)(=O)O)c(c(O)c3c1O)C2` [KY-143], the IC50 in series [1] is > 10 µg/mL; in series [3] (panel of human cell lines, 3 days) it was 50 µg/mL (≈ 34.3 µM); in [5], > 10 µg/mL. The EC100 was found to be 125 µg/mL in [2] (Human immunodeficiency virus 1, 18 h, read-out: HIV-RF-II ED100, complete inhibition of syncytia formation) and 250 µg/mL in series [4]. The “protection from CPE, in words” value in series [6] is on record as “low activity”.
In [7], `O=S(=O)(O)c1cc2c(O)c(c1)Cc1cc(S(=O)(=O)O)cc(c1O)Cc1cc(S(=O)(=O)O)cc(c1O)Cc1cc(S(=O)(=O)O)cc(c1O)Cc1cc(S(=O)(=O)O)cc(c1O)Cc1cc(S(=O)(=O)O)cc(c1O)Cc1cc(S(=O)(=O)O)cc(c1O)Cc1cc(S(=O)(=O)O)cc(c1O)C2` [Y-1] yielded an ED90 concentration of 12.5 μg/50 μl. The “maximum decrease in viral yield, either drug alone” value in series [8] is recorded as “less than three”. The IC50 in series [1] was determined as 7.2 µg/mL (≈ 4.83 µM); in series [4] (Human immunodeficiency virus 1, read-out: HIV-HXB IC50) it was 16 µg/mL (≈ 10.7 µM); in series [5], 7 µg/mL (≈ 4.7 µM). Further, in series [9] (12.5 μg/50 μl topical), the “ocular disease, 12.5 μg/50 μl” value is “most effective ocular therapy”. Moreover, the “corneal epithelial HSV-1 induced disease, 18.75 μg/50 μl” value in series [9] (18.75 μg/50 μl topical) is reported as “effective in reducing the development of corneal epithelial HSV-1induced disease”. Further, the “toxicity to corneal epithelial surface, conjunctiva, iris and stroma” value in series [9] (18.75 μg/50 μl, days 6 and 7) was “somewhat toxic to the corneal epithelial surface and to the conjunctiva, iris and stroma”. Further, the “ocular disease severity versus placebo” value in series [9] (all concentrations, topical) was “effective in reducing the development of HSV-1 induced ocular disease”. Also, the “viral titer in epithelial scrapings” value in [9] (day 7) is reported as “dose-dependent reduction in viral titer”. The “relative activity against HXB strain, in words” value in [4] (HXB strain) is reported as “comparable activities against the HXB strain”. Moreover, the “relative anti-HSV activity, in words” value in [5] (plaque reduction HSV-1 and HSV-2) was “somewhat more active than the corresponding n=4 and n=6 compounds”. The “lesions versus placebo, in words” value in [10] (2% or 6%, 6 h treatment) is “reduced numbers of animals exhibiting lesions, decreased mean lesion scores and decreased peak lesion score”. For the same compound, the “% Animals with Lesions” value in series [10] (2%, 6 h) came to 66.7%; in [10] (2%, 24 h) it was 60%; in series [10] (6%, 6 h), 30%; in series [10] (6%, 24 h), 40%. Besides, the “Lesion Score (AUC)” value in series [10] (2%, 6 h) worked out at 16.9; in series [10] (2%, 24 h), 22.0; in [10] (6%, 6 h), 8.1; in series [10] (6%, 24 h), 14.7. Besides, the “Mean Peak lesion score” value is 1.8 in [10] (2%, 6 h); 2.3 in series [10] (2%, 24 h); 1.2 in series [10] (6%, 6 h); 1.8 in [10] (6%, 24 h). The “lesions, in words” value in series [10] (24 hours post-infection, 6% KY-1 or Y-1, 2% KY-1) was “reduced numbers of lesion bearing animals and reduced severity of lesions”.
As for `Nc1nc2c(ncn2COCCO)c(=O)[nH]1` [ACV, acyclovir, reference compound], the IC90 was 14 µM in [11]; 100 µM in [12]; ~10 µM in [14]; > 100 µM in series [15]; 380 µM in series [16]. Also, in series [8], the “maximum decrease in viral yield, either drug alone” value is reported as “less than three”. Moreover, the “Lesion score Area Under Curve” value came to 2.7 in series [13] (+6 h) and 45.8 in series [13] (+48 h). In addition, the “Mean Peak lesion score” value is 0.6 in [13] (+6 h); 3.8 in series [13] (+48 h); 1.5 in [10] (5%, 24 h). In addition, in series [10] (5%, 24 h), the “% Animals with Lesions” value is given as 37.5%. Moreover, in series [10] (5%, 24 h), the “Lesion Score (AUC)” value came to 11.7.
`COc1c2c(S(=O)(=O)O)cc3cc(S(=O)(=O)O)c(c(OC)c13)Cc1c(S(=O)(=O)O)cc3cc(S(=O)(=O)O)c(c(OC)c3c1OC)Cc1c(S(=O)(=O)O)cc3cc(S(=O)(=O)O)c(c(OC)c3c1OC)Cc1c(S(=O)(=O)O)cc3cc(S(=O)(=O)O)c(c(OC)c3c1OC)C2` [KY-151]: the IC50 came out at 1.8 µg/mL (≈ 1.25 µM) in series [1], 50 µg/mL (≈ 34.7 µM) in [3] (Homo sapiens) and 1.25 µg/mL (≈ 0.867 µM) in series [5]. In series [2] (complete inhibition of syncytia formation), the “HIV-RF-II ED100” value was found to be 125. For the same compound, the EC50 was 1.5 µg/mL (≈ 1.04 µM) in series [17] and > 94 µg/mL in [18]. The EC100 in [4] stood at 32 µg/mL.
As for protamine sulfate, in series [19], the “blocking of anticoagulant effect of calix(n)arene” value is reported as “effectively blocked”.
